Tests used:
[1] = molecular target: Mcl-1 (Homo sapiens (Human), UniProt Q07820); test: TR-FRET binding assay, FITC-Bak peptide and MBP-tagged Mcl-1; conditions: read-out: Ki for Inhibition of Mcl-1 by TR-FRET assay
Protocol: Compounds are diluted in DMSO in a 16-point, semilog serial dilution scheme. […] The plate was mixed and incubated for 3 hours at room temperature. […] TR-FRET signal is plotted and IC50 and Ki values are calculated in the same manner as the fluorescence polarization anisotropy based competition assays.

[2] = tested on: H929 human cancer cell lines; test: Cellular viability / proliferation (Cell TiterGlo, 72 h); format: cell-based; conditions: Homo sapiens, NCI-H929, 72 h, read-out: GI50 on cellular proliferation of H929 human cancer cell lines, H929 cells, 72 h, Cell TiterGlo, 10% FBS
Outline: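 Compounds were added as 2-fold serial dilutions from 50 μM (final DMSO <1%) to H929 cells seeded 1,000 per well in 10% FBS medium one day earlier.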

Chain of Mcl-1 (Q07820 172-327): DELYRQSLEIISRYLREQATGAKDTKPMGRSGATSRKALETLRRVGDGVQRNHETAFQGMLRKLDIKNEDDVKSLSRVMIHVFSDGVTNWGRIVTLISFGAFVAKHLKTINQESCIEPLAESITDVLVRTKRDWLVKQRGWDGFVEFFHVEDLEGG

## Cc1cc(OCCCc2c3n(c4c(-c5c(C)nn(C)c5C)c(Cl)ccc24)[C@H](C)CN(c2cccc4cc(C(=O)O)n(Cc5cnn(C)n5)c24)C3=O)cc(C)c1Cl [Example 570, (R)-7-(7-chloro-10-(3-(4-chloro-3,5-dimethylphenoxy)propyl)-4-methyl-1-oxo-6-(1,3,5-trimethyl-1H-pyrazol-4-yl)-3,4-dihydropyrazino[1,2-a]indol-2(1H)-yl)-1-((2-methyl-2H-1,2,3-triazol-4-yl)methyl)-1H-indole-2-carboxylic acid]
[1]
  Ki: < 0.2 nM
[2]
  GI50: 560 nM

## Cc1cc(OCCCc2c3n(c4c(-c5c(C)nn(C)c5C)c(Cl)ccc24)[C@H](C)CN(c2cc(C(=O)N4CCN(C)CC4)cc4cc(C(=O)O)n(C)c24)C3=O)cc(C)c1Cl [Example 626, (R)-7-(7-chloro-10-(3-(4-chloro-3,5-dimethylphenoxy)propyl)-4-methyl-1-oxo-6-(1,3,5-trimethyl-1H-pyrazol-4-yl)-3,4-dihydropyrazino[1,2-a]indol-2(1H)-yl)-1-methyl-5-(4-methylpiperazine-1-carbonyl)-1H-indole-2-carboxylic acid]
[1]
  Ki: < 0.2 nM
[2]
  GI50: 4400 nM

## Cc1cc(OCCCc2c3n(c4c(-c5c(C)nn(C)c5C)c(Cl)ccc24)[C@H](C)CN(c2cc(C(=O)O)nc4ccccc24)C3=O)cc(C)c1Cl [Example 669, (R)-4-(7-chloro-10-(3-(4-chloro-3,5-dimethylphenoxy)propyl)-4-methyl-1-oxo-6-(1,3,5-trimethyl-1H-pyrazol-4-yl)-3,4-dihydropyrazino[1,2-a]indol-2(1H)-yl)quinoline-2-carboxylic acid]
[1]
  Ki: 1 nM
[2]
  GI50: 7600 nM

## Cc1cc(OCCCc2c3n(c4c(-c5c(C)nn(C)c5C)c(Cl)ccc24)[C@H](C)CN(c2cc(C(=O)N4CCN(C)C(=O)C4)cc4cc(C(=O)O)n(C)c24)C3=O)cc(C)c1Cl [Example 630, (R)-7-(7-chloro-10-(3-(4-chloro-3,5-dimethylphenoxy)propyl)-4-methyl-1-oxo-6-(1,3,5-trimethyl-1H-pyrazol-4-yl)-3,4-dihydropyrazino[1,2-a]indol-2(1H)-yl)-1-methyl-5-(4-methyl-3-oxopiperazine-1-carbonyl)-1H-indole-2-carboxylic acid]
[1]
  Ki: < 0.2 nM
[2]
  GI50: 9000 nM

## Cc1cc(OCCCc2c3n(c4c(-c5c(C)nn(C)c5C)c(Cl)ccc24)[C@H](C)CN(c2cn(C)c4ncc(C(=O)O)cc24)C3=O)cc(C)c1Cl [Example 575, (R)-3-(7-chloro-10-(3-(4-chloro-3,5-dimethylphenoxy)propyl)-4-methyl-1-oxo-6-(1,3,5-trimethyl-1H-pyrazol-4-yl)-3,4-dihydropyrazino[1,2-a]indol-2(1H)-yl)-1-methyl-1H-pyrrolo[2,3-b]pyridine-5-carboxylic acid]
[1]
  Ki: < 0.2 nM
[2]
  GI50: 740 nM

## Cc1cc(OCCCc2c3n(c4c(-c5c(C)nn(C)c5C)c(Cl)ccc24)[C@H](C)CN(c2cc(N(C)Cc4ccccn4)cc4c(C(=O)O)cn(C)c24)C3=O)cc(C)c1Cl [Example 564, (R)-7-(7-chloro-10-(3-(4-chloro-3,5-dimethylphenoxy)propyl)-4-methyl-1-oxo-6-(1,3,5-trimethyl-1H-pyrazol-4-yl)-3,4-dihydropyrazino[1,2-a]indol-2(1H)-yl)-1-methyl-5-(methyl(pyridin-2-ylmethyl)amino)-1H-indole-3-carboxylic acid]
[1]
  Ki: 0.46 nM
[2]
  GI50: 590 nM

## COc1ccc(N2C[C@@H](C)n3c(c(CCCOc4cc(C)c(Cl)c(C)c4)c4ccc(Cl)c(-c5c(C)ncnc5C)c43)C2=O)c2c1cc(C(=O)O)n2Cc1cc(C)ccn1 [Example 520, (R)-7-(7-chloro-10-(3-(4-chloro-3,5-dimethylphenoxy)propyl)-6-(4,6-dimethylpyrimidin-5-yl)-4-methyl-1-oxo-3,4-dihydropyrazino[1,2-a]indol-2(1H)-yl)-4-methoxy-1-((4-methylpyridin-2-yl)methyl)-1H-indole-2-carboxylic acid]
[1]
  Ki: < 0.2 nM
[2]
  GI50: < 200 nM

Reference: US11596639B2, “Substituted indole Mcl-1 inhibitors” (Vanderbilt University, priority 2016, dated 2023)
